Data published in article PMC6895048, “4,5-Disubstituted 1,2,3-triazoles: Effective Inhibition of Indoleamine 2,3-Dioxygenase 1 Enzyme Regulates T cell Activity and Mitigates Tumor Growth” (Scientific Reports, 2019).

Columns and labels:
[1] = Serum binding by Trp-fluorescence quenching; assay type: in vitro ADME, human; conditions: qualitative; compared with compound 4i
Method: Tryptophan fluorescence measurements of the human serum were performed in the presence of compounds on a Fluoromax-4 spectrofluorometer at room temperature. For fluorescence measurements, 30 µL of 100% human serum and varying concentrations (0–220 µM) of compounds were incubated in 10 mM PBS buffer, pH 7.4. The solution was excited at 290 nm, and emission spectra were recorded from 300 to 560 nm. The resulting tryptophan emission spectra for each concentration of the compounds were plotted.

CD8+ T cells = test: T cell activity in breast tumor micro-environment (flow cytometry); assay type: cell-based, human; conditions: 50 μM; for regulation of CD8+ T cells in tumor micro-environment: 20% MDA-MB-231 conditioned medium, 48 hours; for regulation of effector memory CD8+ T cells in tumor micro-environment: CCR7lowCD45RAlow phenotype
Method: We designed this study to evaluate the effects of IDO1 inhibition on cytotoxic T cells present in the breast tumor micro-environment. To mimic breast tumor micro-environment, we used 20% conditioned medium of human metastatic breast cancer cell line MDA-MB-231 with fresh RPMI and 10% FBS. Freshly isolated PBL cells were stimulated with PMA and ionomycin prior to culture in 20% conditioned medium and compounds at selected concentrations. Drug treatment was done for 48 hours followed by immunophenotyping by flow cytometry. For cell proliferation experiments freshly isolated PBLs were cultured in RPMI with 10% FBS and inhibitors for 48 hours. After that the cells were counted with hemocytometer. All the experiments were repeated thrice before analyzing data. The concentration of the compounds was 50 μM for all the T cell activity studies. All the T cell culture related experiments were conducted in the designated biosafety level facility available at the University of Calcutta.
Peripheral blood lymphocyte was isolated from freshly isolated blood samples of healthy volunteers in a previously described protocol. Briefly, blood was diluted with equal volume of sterile PBS and allowed in density gradient centrifugation over histopaque. Isolated PBLs were washed and cultured in RPMI medium with 10% FBS. Peripheral blood lymphocytes (PBLs) were isolated from fresh blood of healthy volunteers and cultured in RPMI medium with or without compound at selected concentration for 48 hours. Treatment of the compound uplifted cell proliferation. To evaluate whether 4,5-disubstituted 1,2,3-triazole regulate T cell activity, PBL was isolated and cultured at 20% conditioned medium of human metastatic breast cancer cell line MDA-MB-231. To perform this experiment PBL was isolated from three healthy volunteers and three independent experiments were performed. All the volunteers signed informed consent form[45],[49].
The T cells were activated according to standardized protocol published elsewhere. 100 ng/mL PMA and 1 μg/mL ionomycin were used to stimulate the T cells for 2 hrs. PBLs freshly cultured in RPMI with 10% FBS was added in the culture plate at 2 × 10^5 cells/ well and cultured at 37 °C with 5% CO2 for the duration of activation.
After treatment for given period of time the lymphocytes were analyzed for alteration of protein expression by flow cytometry according to previously published protocols. Briefly the cells were pelleted down resuspended in cell staining buffer. After cell counting cells were stained against PE-CD8 (Miltenyi Bioteh.), PerCP-Cy 5.5-CCR-7 (Miltenyi Bioteh.), APC-CD45RA (Miltenyi Bioteh.), VioBright-FITC-PD-1 (Miltenyi Bioteh.) antibodies as per the manufacturer recommended concentration and incubated in ice for given period of time. Post incubation, the cells were washed, suspended in cell staining buffer before data was acquired using FACS-Verse flow cytometer. The results were analyzed with FlowJo software (v X.0.7). The experiments were repeated thrice prior data analysis.

IDO1 [2] = molecular target: T1, IDO1 (Homo sapiens, UniProt P14902); test: Equilibrium surface plasmon resonance (SPR) analysis; assay type: binding; parameters: made in house; host or cells: Escherichia coli M15 (pQE30 vector with pREP4 plasmid); conditions: PBS buffer pH 7.4, triplicate
Method: The surface plasmon resonance (SPR) analysis was carried out according to the reported procedure with minor modifications[34],[52]. In brief, the measurements were performed at 25 °C on the Biacore-X100 instrument using CM5 sensor chip (GE Healthcare). PBS buffer at pH 7.4 was used as running buffer. The surface of the CM5 sensor chip was first modified with Anti-His Antibody using amine-coupling kit at a flow rate of 30 µL/ minute, followed by IDO1 enzyme (30 µg/mL) immobilization using His-capture kit at a flow rate of 10 µL/minute for 2 minutes. The IDO1 enzyme capture level was 4000 response units (RU). The binding efficacy (association constant; ka) of the compounds was determined by measuring the change in RU of the SPR sensorgram in absence or presence of the compounds (0 to 50 µM).
Figure S1. Measurements of compound binding affinity of the human IDO1 enzyme by […]
equilibrium SPR analysis.
(D), respectively injected over the biosensor chip surface-immobilized with IDO-1 protein are indicated. PBS buffer at pH 7.4 was used for all measurements. Binding isotherm was generated from the Req (average of triplicate measurements) versus the concentration of […] plot. Kd values determined by nonlinear least-squares analysis of the isotherm using the following equation: Req = Rmax/(1 + Kd/P).
Table S3. IDO1 binding affinity of various compounds determined from equilibrium SPR […]
(1 picture or pasted object on this page, not shown here)

IDO1 [3] = molecular target: T1, IDO1; test: Kynurenine assay by HPLC analysis, IDO1; assay type: biochemical; parameters: made in house; host or cells: Escherichia coli M15 (pQE30 vector with pREP4 plasmid)
Method: HPLC based IDO1, and TDO inhibition assays were performed according to the earlier reported procedure[19],[27]–[30]. The reaction mixture (250 µL) contained KPB (100 mM, pH 6.5 for IDO1 and 50 mM, pH 8.0 for TDO), sodium ascorbate (20 mM), methylene blue (10 µM), catalase (240 nM, from bovine liver, Sigma), L-Trp (150 µM), purified enzyme (40 nM for IDO1 and 25 nM for TDO), DMSO (0.05%, v/v), Triton-X 100 (0.01%, v/v) and inhibitors. The concentration of the compound was varied from 100 µM to 32 nM by serial dilution. The mixture was incubated at 37 °C for 1 hour in the absence and presence of the synthesized compounds. The reaction was then quenched using 50 µL of 30% (w/v) trichloroacetic acid and incubated at 65 °C for additional 15 minutes to allow complete hydrolysis of N-formylkynurenine to kynurenine. After that, the mixture was centrifuged at 10,000 rpm for 10 minutes, and 100 µL of clear solution was transferred to another tube for HPLC analysis. Then, 20 µL of the reaction mixture was then injected through Ascentis® express C18, 2.7 µm HPLC column with a flow rate of 0.5 mL/minute of the mobile phase containing 50% sodium citrate buffer (40 mM, pH 2.25) and 50% methanol (v/v) with 400 µM SDS. The area under the curve at 365 nm chromatogram corresponding to the kynurenine formation was recorded, and % of inhibition was calculated using standard curve prepared with pure kynurenine (from Sigma) under similar experimental conditions.

[4] = HPLC based IDO1 inhibition assay

T1 sequence (P14902 whole entry): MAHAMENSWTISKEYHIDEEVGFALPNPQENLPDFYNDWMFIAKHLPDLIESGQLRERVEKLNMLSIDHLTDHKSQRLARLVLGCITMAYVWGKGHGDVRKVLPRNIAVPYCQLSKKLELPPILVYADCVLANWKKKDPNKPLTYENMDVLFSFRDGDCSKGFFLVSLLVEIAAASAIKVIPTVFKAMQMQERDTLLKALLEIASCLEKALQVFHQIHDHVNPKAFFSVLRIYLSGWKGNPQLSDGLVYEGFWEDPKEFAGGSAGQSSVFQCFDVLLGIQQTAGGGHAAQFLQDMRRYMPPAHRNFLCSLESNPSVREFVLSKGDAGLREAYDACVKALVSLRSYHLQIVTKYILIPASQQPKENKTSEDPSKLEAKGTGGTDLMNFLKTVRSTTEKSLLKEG

Row | SMILES | interaction with human serum proteins (Trp-fluorescence quenching) [1] | PD-1 expression on CD8+ T cells in tumor micro-environment (CD8+ T cells) | regulation of CD8+ T cells in tumor micro-environment (CD8+ T cells) | regulation of effector memory CD8+ T cells in tumor micro-environment (CD8+ T cells) | Kd (IDO1 [2]) | IC50 (IDO1 [3]; [4]) | % Of inhibition for IDO1 enzyme (IDO1 [3]; HPLC, 32 nM) | % Of inhibition for IDO1 enzyme (IDO1 [3]; HPLC, 160 nM) | % Of inhibition for IDO1 enzyme (IDO1 [3]; HPLC, 800 nM) | % Of inhibition for IDO1 enzyme (IDO1 [3]; HPLC, 4 µM) | % Of inhibition for IDO1 enzyme (IDO1 [3]; HPLC, 20 µM) | % Of inhibition for IDO1 enzyme (IDO1 [3]; HPLC, 100 µM) | IC50 (IDO1 [3]; kynurenine assay) | inhibition at 0.032 µM (IDO1 [3]; HPLC, 32 nM) | inhibition at 0.16 µM (IDO1 [3]; HPLC, 160 nM) | inhibition at 0.8 µM (IDO1 [3]; HPLC, 800 nM) | inhibition at 4 µM (IDO1 [3]; HPLC, 4 µM) | inhibition at 20 µM (IDO1 [3]; HPLC, 20 µM) | inhibition at 100 µM (IDO1 [3]; HPLC, 100 µM)
1 | CCOC(=O)c1n[nH]nc1-c1ccc(F)c(F)c1 [Compound 2i] | more strongly | Down-regulation | Up-regulation | Up-regulation | 61700 ± 6070 nM | 396 ± 10 nM | 21% | 29% | 59% | 60% | 78% | 80% | – | – | – | – | – | – | –
2 | O=C(N/C(Cc1ccc(O)cc1)=N\O)c1n[nH]nc1-c1ccc(F)c(F)c1 [Compound 4i] | – | Down-regulation | Up-regulation | Up-regulation | 40200 ± 4990 nM | 114 ± 10 nM | 13% | 34% | 52% | 68% | 79% | 84% | 60 to 115 nM | – | – | – | – | – | –
3 | NC(=O)c1n[nH]nc1-c1ccc(F)c(F)c1 [Compound 3i] | more strongly | Down-regulation | Up-regulation | Up-regulation | 34500 ± 5200 nM | 119 ± 13 nM | 27% | 48% | 69% | 76% | 84% | 83% | – | – | – | – | – | – | –
4 | NS(=O)(=O)NCCNC(=O)c1n[nH]nc1-c1ccc(F)c(F)c1 [Compound 4k] | more strongly | Down-regulation | Up-regulation | Up-regulation | 49100 ± 8510 nM | 59 ± 6 nM | – | – | – | – | – | – | 60 to 115 nM | 14% | 45% | 69% | 77% | 86% | 84%
